Reference: patent US8900636B2, “Controlled release compositions” (Evonik Corporation, priority 2003, dated 2014)

Assay: Stability of free peptide incubated in release medium (HPLC)
Type: physicochemical
Settings: PBS, pH 7.2, 37° C., after 49 days
Protocol: Octreotide acetate as the free peptide was measured to be 95% intact by high-pressure liquid chromatography (HPLC) following incubation in the release medium (PBS, pH 7.2, 37° C.) after 49 days. In contrast, incubation of octreotide acetate PLGA microparticle formulations produced 55% of modified peptide species after 70 days in the release medium (PBS, pH 7.2, 37° C., Table 2). […] The masses found were consistent with random acylation, for example, peptide plus one or two glycolic or lactic acid monomers in any combination. It may be that acylation products arise from attack on PLGA fragments or the polymer backbone by nucleophilic moieties in octreotide. At a lower pH these moieties likely would be protonated reducing their nucleophilicity and consequently the amount of acylated product. It was observed that formation of acylated byproducts for octreotide acetate PLGA microparticles incubated in 100 mM sodium acetate (NaOAc, pH 4.0) buffer was reduced to 1.25% at 49 days, in marked contrast to the results for PBS buffer (55%).

C[C@@H](O)[C@@H]1NC(=O)[C@H](CCCCN)NC(=O)[C@@H](Cc2c[nH]c3ccccc23)NC(=O)[C@H](Cc2ccccc2)NC(=O)[C@@H](NC(=O)[C@H](N)Cc2ccccc2)CSSC[C@@H](C(=O)N[C@H](CO)[C@@H](C)O)NC1=O [Octreotide acetate, octreotide acetate]
intact peptide by HPLC: 95%
